Results on 13 molecules are retold here after publication PMC7703437, “In Vitro Hepatic Metabolism of Curcumin Diethyl Disuccinate by Liver S9 from Different Animal Species” (Frontiers in Pharmacology, 2020).

Like-named read-outs stand apart in the source and are kept apart here.

In data set [1] the test system is hepatic esterases of MLS9. Description: Identification of hepatic esterases by chemical inhibition, curcumin formation rate, MLS9. To be noted: inhibitor 100 μM (EDTA 1 mM), preincubated 30 min at 37°C, MLS9 0.02 mg/ml, CDD 3 µM, 0.5 min.
The test system of data set [2] is hepatic esterases of HLS9. The data set is described as follows: Identification of hepatic esterases by chemical inhibition, curcumin formation rate, HLS9. The conditions noted are these: inhibitor 100 μM (EDTA 1 mM), preincubated 30 min at 37°C, HLS9 0.02 mg/ml, CDD 3 µM, 1 min.
The conditions of data set [3]: enzymatic hydrolysis, cited from earlier work.
A short description of data set [4]: In vitro metabolism profiling of CDD in human liver S9 (1 mg/ml). Format: in vitro ADME. To be noted: pooled liver S9; human LS9 1 mg/ml; read-out: t 1/2 (MSCUR). As for the experimental part: (§1) The metabolism profiles of CDD were investigated against HLS9, MLS9, DLS9, and RLS9. A stock solution of CDD was prepared at 150 µM in 50% acetonitrile in water before use. The metabolism study was initiated by spiking 735 µl of preincubated LS9 with 15 µl of CDD stock solution, and the mixture was subsequently incubated at 37°C. The final concentrations of CDD and LS9 were 3 μM and 1 mg/ml, respectively. A 50-µl aliquot from the mixture was collected at 0.5, 1, 2, 3, 4, 5, 10, 15, 30, 45, 60, 90, and 120 min and immediately mixed with 100 µl of ice-cold acetonitrile containing 0.45 µM of internal standard DMC to terminate the metabolic reaction. […] The sample at the initial time point (0 min) was prepared as the other samples, except that heat-inactivated HLS9, MLS9, DLS9, and RLS9 (80°C for 20 min; 1 mg/ml protein) were used.
(§2) The UHPLC system consisted of an Agilent series 1290 quaternary pump with an online degasser, autosampler, column oven, and diode array detector. The mobile phase was composed of (A) 0.1% (v/v) formic acid in acetonitrile and (B) 0.1% (v/v) formic acid in water. Each solution was filtered through a nylon filter (pore size, 0.22 µm; MS® Membrane Filters; Membrane Solutions, United States) before use. The mobile phase flow rate was kept at 1.2 ml/min in a gradient mode using the following elution program: 0–3.0 min, initial A-B (40:60, v/v); 4.5–7.0 min, isocratic elution A-B [50:50, (v/v); 8.5–11.0 min, isocratic elution A-B (60:40, v/v); and 12.0–17.0 min, isocratic elution A-B (40:60, v/v)]. CDD, curcumin, and MSCUR in the supernatant were partitioned using a C8 column (4.6 mm × 50 mm, 2.7 µm; HALO, Advanced Materials Technology, United States) with reference to DMC. The detection wavelength was set at 400 nm (λ max(CDD) = 400 nm, λ max(curcumin) = 427 nm, λ max(MSCUR) = 418 nm, and λ max(DMC) = 421 nm). The column was maintained at 35°C throughout the run, and the supernatant injection volume was set at 20 µl.
(§3) The concentrations of CDD, curcumin, and MSCUR in the supernatant were determined from the standard plots, which were prepared by spiking individual working solutions of the compounds to heat-inactivated HLS9, MLS9, DLS9, and RLS9 ([Alcorn et al., 2007]; [Montoro-Garcia et al., 2009]; [Singh et al., 2010]). These working standards were extracted with 100 µl of ice-cold acetonitrile containing 0.45 µM of DMC and then 120 μl of the supernatant was diluted with 40 μl of water prior to the UHPLC analysis. The peak area ratios of CDD, curcumin, and MSCUR to the internal standard were computed against linear concentration ranges of 0.025–4.5 µM CDD, 0.025–4.5 µM curcumin, and 0.0125–0.75 µM MSCUR, respectively, with the coefficient of determination (r^2) values greater than 0.99.
(§4) The percent content of CDD and the metabolites formed upon its incubation with LS9, namely, curcumin and MSCUR, was plotted against incubation time.
(§5) The following equations were adopted to describe the changes in CDD and MSCUR content over time (t): A = A0e^−k1t (2) B= k1A0/k2−k1(e^−k1t−e^−k2t), (3) where A0 is the CDD concentration at time 0, k 1 is the degradation rate constant of CDD, and k 2 is the degradation rate constant of MSCUR. k 1 and k 2 were determined by using Eqs. 2 and 3, respectively, with nonlinear regression analysis using the SOLVER function of Microsoft Excel for Office 365 MSO (16.0.12527.20986) ([Brown, 2001]). The half-life (t 1/2) was calculated using Eq. 4: t1/2=0.693/k (4)
(§6) The in vitro intrinsic clearance (CLint,in vitro) of CDD and MSCUR in LS9 was calculated using Eq. 5: CLint, in vitro= k × [V]incubation(ml)/[P]incubation(mg protein), (5) where [V]incubation is the incubation volume in ml, and [P]incubation is the amount of LS9. […]

The subject of a further data set is human LS9 (HLS9; pooled). Described as above. Format: in vitro ADME. How it is done: as §1, §2, §3, §4, §5, §6
The nature of data set [5]: In vitro metabolism profiling of CDD in monkey liver S9 (1 mg/ml). It counts as in vitro ADME, monkey (cynomolgus). The conditions noted are these: liver S9; monkey LS9 1 mg/ml; read-out: t 1/2 (MSCUR). As for the experimental part:
as §1, §2, §3, §4, §5, §6

The test system of data set [6] is monkey LS9 (MLS9; cynomolgus). The description is as above. It counts as in vitro ADME. How it is done: as §1, §2, §3, §4, §5, §6
Data set [7] is described as follows: In vitro metabolism profiling of CDD in dog liver S9 (1 mg/ml). It counts as in vitro ADME, dog (beagle). The conditions noted are these: beagle, liver S9; dog LS9 1 mg/ml; read-out: t 1/2 (MSCUR). As for the experimental part:
as §1, §2, §3, §4, §5, §6

The subject of a further data set is dog LS9 (DLS9; beagle). The data set is described as above. It counts as in vitro ADME. As for the experimental part: as §1, §2, §3, §4, §5, §6
Data set [8] in a line: In vitro metabolism profiling of CDD in rat liver S9 (1 mg/ml). The conditions noted are these: Sprague-Dawley, liver S9; rat LS9 1 mg/ml; read-out: t 1/2 (MSCUR). Format: in vitro ADME, rat (Sprague–Dawley). As for the experimental part: as §1, §2, §3, §4, §5, §6
For data set [9], the system named is rat LS9 (RLS9; Sprague–Dawley). The data set is described as above. It counts as in vitro ADME. As for the experimental part: as §1, §2, §3, §4, §5, §6
Data set [10] concerns LS9 from all tested species (HLS9, MLS9, DLS9, RLS9). Description: In vitro metabolism profiling of CDD, statements for LS9 from all tested species. It counts as in vitro ADME, human, monkey, dog, rat. How it is done:
as §1, §2
The concentrations of CDD, curcumin, and MSCUR in the supernatant were determined from the standard plots, which were prepared by spiking individual working solutions of the compounds to heat-inactivated HLS9, MLS9, DLS9, and RLS9 ([Alcorn et al., 2007]; [Montoro-Garcia et al., 2009]; [Singh et al., 2010]). […]
The following equations were adopted to describe the changes in CDD and MSCUR content over time (t): A = A0e^−k1t (2) B= k1A0/k2−k1(e^−k1t−e^−k2t), (3) where A0 is the CDD concentration at time 0, k 1 is the degradation rate constant of CDD, and k 2 is the degradation rate constant of MSCUR. k 1 and k 2 were determined by using Eqs. […] The half-life (t 1/2) was calculated using Eq. 4: t1/2=0.693/k (4)

On to `C=CC[N+](C)(C)c1ccc(CCC(=O)CCc2ccc([N+](C)(C)CC=C)cc2)cc1.[Br-].[Br-]` [1,5-bis(4-allyldimethylammoniumphenyl) pentan-3-one dibromide], for which the “inhibition of CDD hydrolysis in MLS9 (relative curcumin formation rate)” value in [1] is listed as “no enzyme inhibitory effects”.

On to `O=[N+]([O-])c1ccc(OP(=O)(O)Oc2ccc([N+](=O)[O-])cc2)cc1` [BNPP, Bis(4-nitrophenyl) phosphate], for which the “inhibition of CDD hydrolysis in HLS9 (relative curcumin formation rate)” value in [2] is listed as “inhibited”. Besides, the “inhibition of CDD hydrolysis in MLS9 (relative curcumin formation rate)” value in [1] is given as “inhibited”.

`O=C(O)c1cc(SSc2ccc([N+](=O)[O-])c(C(=O)O)c2)ccc1[N+](=O)[O-]` [DTNB, 5,5′-dithiobis (2-nitrobenzoic acid)]: the “inhibition of CDD hydrolysis in HLS9 (relative curcumin formation rate)” value in [2] was “to a lesser extent”. Further, in data set [1], the “inhibition of CDD hydrolysis in MLS9 (relative curcumin formation rate)” value is on record as “no enzyme inhibitory effects”.

As to `O=C(O)CN(CCN(CC(=O)O)CC(=O)O)CC(=O)O` [EDTA, ethylenediaminetetraacetic acid], in data set [1], the “inhibition of CDD hydrolysis in MLS9 (relative curcumin formation rate)” value is “no enzyme inhibitory effects”.

For `CC(C)OC(=O)[C@H](C)N[P@](=O)(OC[C@H]1O[C@@](C#N)(c2ccc3c(N)ncnn23)[C@](C)(O)[C@@H]1OC(=O)C(C)C)Oc1ccccc1` [GS-6620], the “t 1/2” value in [3] (ref Murakami et al., 2014) is on record as “approximately 4.0 min”.

For the molecule `CCOC(=O)CCC(=O)Oc1ccc(/C=C/C(=O)/C=C(O)/C=C/c2ccc(O)c(OC)c2)cc1OC` [MSCUR, monoethylsuccinyl curcumin], the half-life in [4] came to 3.456 ± 0.00252 s. In addition, the “CLint, in vitro(MSCUR)” value with human LS9 (HLS9; pooled) (human LS9) is on record as 12.07 ± 0.86 ml min^−1 mg protein^−1; in data set [6] (monkey LS9) it was 20.79 ± 3.13 ml min^−1 mg protein^−1; in the data set on dog LS9 (DLS9; beagle) (dog LS9) it was 24.61 ± 2.55 ml min^−1 mg protein^−1; in data set [9] (rat LS9), 9.66 ± 0.60 ml min^−1 mg protein^−1. The “k 2 (MSCUR)” value with human LS9 (HLS9; pooled) (human LS9 1 mg/ml, CDD 3 µM, 37°C) was determined as 12.07 ± 0.86 min⁻¹; in data set [6] (monkey LS9 1 mg/ml, CDD 3 µM, 37°C), 20.79 ± 3.13 min⁻¹; in the data set with dog LS9 (DLS9; beagle) (dog LS9 1 mg/ml, CDD 3 µM, 37°C), 24.61 ± 2.55 min⁻¹; in data set [9] (rat LS9 1 mg/ml, CDD 3 µM, 37°C), 9.66 ± 0.60 min⁻¹. In addition, the “CLint, in vivo(MSCUR)” value in the data set with human LS9 (HLS9; pooled) (human, scaled from CLint,in vitro) was 2,251.20 ± 161.06 L h^−1 kg^−1; in [6] (monkey, scaled from CLint,in vitro), 4,527.30 ± 682.15 L h^−1 kg^−1; in the data set with dog LS9 (DLS9; beagle) (dog, scaled from CLint,in vitro), 5,716.98 ± 592.58 L h^−1 kg^−1; in [9] (rat, scaled from CLint,in vitro) it was 2,805.37 ± 174.76 L h^−1 kg^−1. In addition, the half-life at 3 µM is 2.034 ± 0.00324 s in data set [5], 1.704 ± 0.0018 s in [7] and 4.314 ± 0.00264 s in data set [8]. In addition, the “CLint, in vitro(MSCUR) of MLS9 higher than that of HLS9” value in [6] (MLS9 vs HLS9) was roughly 1.7 fold. In addition, the “CLint, in vitro(MSCUR) of DLS9 higher than that of HLS9” value in the data set with dog LS9 (DLS9; beagle) (DLS9 vs HLS9) was “approximately two”. Moreover, the “CLint, in vitro(MSCUR) of RLS9 lower than that of HLS9” value in data set [9] (RLS9 vs HLS9) came out at 0.8 fold. The “maximum amount of M2 or MSCUR” value in [10] (at 0.5 min of incubation of CDD 3 µM in LS9) is listed as “approximately 10%”.

For `O=C([O-])c1cc[c]([Hg][OH])cc1.[Na+]` [PCMB, 4-(hydroxymercurio) benzoic acid sodium salt], in data set [2], the “inhibition of CDD hydrolysis in HLS9 (relative curcumin formation rate)” value is on record as “inhibited”. The “inhibition of CDD hydrolysis in MLS9 (relative curcumin formation rate)” value in data set [1] is recorded as “no enzyme inhibitory effects”.

As to `O=S(=O)(F)Cc1ccccc1` [PMSF, phenylmethylsulfonyl fluoride], the “inhibition of CDD hydrolysis in HLS9 (relative curcumin formation rate)” value in [2] was “to a lesser extent”.

On to `C[C@@H]1CC[C@@]2(OC1)O[C@H]1[C@@H](O)[C@H]3[C@@H]4CC[C@H]5C[C@@H](O[C@@H]6O[C@H](CO)[C@H](O[C@@H]7O[C@H](CO)[C@@H](O)[C@H](O[C@@H]8OC[C@@H](O)[C@H](O)[C@H]8O)[C@H]7O[C@@H]7O[C@H](CO)[C@H](O)[C@H](O[C@@H]8O[C@H](CO)[C@@H](O)[C@H](O)[C@H]8O)[C@H]7O)[C@H](O)[C@H]6O)[C@H](O)C[C@]5(C)[C@H]4CC[C@]3(C)[C@H]1[C@@H]2C` [digitonin], for which, in [2], the “inhibition of CDD hydrolysis in HLS9 (relative curcumin formation rate)” value is given as “inhibited”.

For the molecule `CC(C)NP(=O)(NC(C)C)OP(=O)(NC(C)C)NC(C)C` [iso-OMPA, tetra(monoisopropyl) pyrophosphortetramide], the “inhibition of CDD hydrolysis in HLS9 (relative curcumin formation rate)” value in data set [2] was “to a lesser extent”.

Take `CN(C)C(=O)C(CCN1CCC(O)(c2ccc(Cl)cc2)CC1)(c1ccccc1)c1ccccc1` [loperamide]: the “inhibition of CDD hydrolysis in HLS9 (relative curcumin formation rate)” value in data set [2] is reported as “inhibited”.

Take `COC(=O)[C@H](c1ccccc1Cl)N1CCc2sc(OC(C)=O)cc2C1` [vicagrel]: in data set [3] (ref Qiu et al., 2016), the “t 1/2” value is given as “approximately 1.6 min”.

Turning to curcumin, in data set [10] (following 15 min of incubation of CDD 3 µM in each LS9), the “curcumin (M1) produced” value is given as roughly 70%.
